#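 The concentration for 50% growth inhibition is given as GI50. The concentration for full growth arrest is given as TGI.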
# What was measured:
# Assay in all cases: NCI-60 cell line screen, 384-well format
# PC-3 prostate = tested on: PC-3 prostate
# NCI/ADR-RES ovarian = tested on: NCI/ADR-RES ovarian
# MDA-MB-435 melanoma = tested on: MDA-MB-435 melanoma
# SW-620 colon = tested on: SW-620 colon
# MDA-MB-468 breast = tested on: MDA-MB-468 breast
# K-562 leukemia = tested on: K-562 leukemia
# OVCAR-3 ovarian = tested on: OVCAR-3 ovarian
# SNB-19 CNS = tested on: SNB-19 CNS
# UO-31 renal = tested on: UO-31 renal
# NCI-H226 lung = tested on: NCI-H226 lung
# OVCAR-5 ovarian = tested on: OVCAR-5 ovarian
# RXF 393 renal = tested on: RXF 393 renal
# SF-539 CNS = tested on: SF-539 CNS
# NCI-H522 lung = tested on: NCI-H522 lung
# UACC-257 melanoma = tested on: UACC-257 melanoma
# KM12 colon = tested on: KM12 colon
# HCT-15 colon = tested on: HCT-15 colon
# T-47D breast = tested on: T-47D breast
# SK-OV-3 ovarian = tested on: SK-OV-3 ovarian
# HOP-92 NSCLC = tested on: HOP-92 NSCLC
# MDA-MB-231 breast = tested on: MDA-MB-231 breast
# NCI-H322M lung = tested on: NCI-H322M lung
# SR leukemia = tested on: SR leukemia
# SNB-75 CNS = tested on: SNB-75 CNS
# SN12C renal = tested on: SN12C renal
# MOLT-4 leukemia = tested on: MOLT-4 leukemia
# SF-295 CNS = tested on: SF-295 CNS
# SF-268 CNS = tested on: SF-268 CNS
# 786-0 renal = tested on: 786-0 renal
# HCC-2998 colon = tested on: HCC-2998 colon
# U251 glioblastoma = tested on: U251 glioblastoma
# CAKI-1 renal = tested on: CAKI-1 renal
# IGROV1 ovarian = tested on: IGROV1 ovarian
# COLO 205 colon = tested on: COLO 205 colon
# HOP-62 NSCLC = tested on: HOP-62 NSCLC
# EKVX NSCLC = tested on: EKVX NSCLC
# UACC-62 melanoma = tested on: UACC-62 melanoma
# CCRF-CEM leukemia = tested on: CCRF-CEM leukemia
# BT-549 breast = tested on: BT-549 breast
# MALME-3M melanoma = tested on: MALME-3M melanoma
# NCI-H23 lung = tested on: NCI-H23 lung
# OVCAR-4 ovarian = tested on: OVCAR-4 ovarian
# NCI-H460 NSCLC = tested on: NCI-H460 NSCLC
# RPMI-8226 leukemia = tested on: RPMI-8226 leukemia
# A549 NSCLC = tested on: A549 NSCLC
# SK-MEL-28 melanoma = tested on: SK-MEL-28 melanoma
# HT29 colon = tested on: HT29 colon
# SK-MEL-5 melanoma = tested on: SK-MEL-5 melanoma
# HS 578T breast = tested on: HS 578T breast
# HL-60(TB) leukemia = tested on: HL-60(TB) leukemia
# LOX IMVI melanoma = tested on: LOX IMVI melanoma
# M14 melanoma = tested on: M14 melanoma
structure (smiles),measurement,setting,value
CN1C/C=C/CCOc2cccc(c2)-c2ccnc(n2)Nc2cccc(c2)C1,GI50,PC-3 prostate,31.1 nM
same,TGI,PC-3 prostate,94.9 nM
same,GI50,NCI/ADR-RES ovarian,34.2 nM
same,TGI,NCI/ADR-RES ovarian,124 nM
same,GI50,MDA-MB-435 melanoma,29.2 nM
same,TGI,MDA-MB-435 melanoma,88.9 nM
same,GI50,SW-620 colon,38.1 nM
same,TGI,SW-620 colon,279 nM
same,GI50,MDA-MB-468 breast,42.7 nM
same,TGI,MDA-MB-468 breast,147 nM
same,GI50,K-562 leukemia,71 nM
same,TGI,K-562 leukemia,307 nM
same,GI50,OVCAR-3 ovarian,22.9 nM
same,TGI,OVCAR-3 ovarian,60.3 nM
same,GI50,SNB-19 CNS,41.1 nM
same,TGI,SNB-19 CNS,1600 nM
same,GI50,UO-31 renal,20.6 nM
same,TGI,UO-31 renal,40.7 nM
same,GI50,NCI-H226 lung,26.9 nM
same,TGI,NCI-H226 lung,86 nM
same,GI50,OVCAR-5 ovarian,29.4 nM
same,TGI,OVCAR-5 ovarian,7.38 µM
same,GI50,RXF 393 renal,19.2 nM
same,TGI,RXF 393 renal,35.4 nM
same,GI50,SF-539 CNS,25.2 nM
same,TGI,SF-539 CNS,62.6 nM
same,GI50,NCI-H522 lung,59.8 nM
same,TGI,NCI-H522 lung,227 nM
same,GI50,UACC-257 melanoma,58.2 nM
same,TGI,UACC-257 melanoma,208 nM
same,GI50,KM12 colon,26 nM
same,TGI,KM12 colon,74.7 nM
same,GI50,HCT-15 colon,30.1 nM
same,TGI,HCT-15 colon,119 nM
same,GI50,T-47D breast,41.6 nM
same,TGI,T-47D breast,1200 nM
same,GI50,SK-OV-3 ovarian,65.3 nM
same,TGI,SK-OV-3 ovarian,1140 nM
same,GI50,HOP-92 NSCLC,44.3 nM
same,TGI,HOP-92 NSCLC,3.56 µM
same,GI50,MDA-MB-231 breast,51.5 nM
same,TGI,MDA-MB-231 breast,296 nM
same,GI50,NCI-H322M lung,30.1 nM
same,TGI,NCI-H322M lung,90.6 nM
same,TGI,SR leukemia,14.9 nM
same,GI50,SNB-75 CNS,26 nM
same,TGI,SNB-75 CNS,65.9 nM
same,GI50,SN12C renal,27.6 nM
same,TGI,SN12C renal,90.3 nM
same,GI50,MOLT-4 leukemia,19.8 nM
same,TGI,MOLT-4 leukemia,37.2 nM
same,GI50,SF-295 CNS,34 nM
same,TGI,SF-295 CNS,504 nM
same,GI50,SF-268 CNS,22.9 nM
same,TGI,SF-268 CNS,67.8 nM
same,GI50,786-0 renal,37 nM
same,TGI,786-0 renal,224 nM
same,GI50,HCC-2998 colon,32.5 nM
same,TGI,HCC-2998 colon,219 nM
same,GI50,U251 glioblastoma,34 nM
same,TGI,U251 glioblastoma,520 nM
same,GI50,CAKI-1 renal,30.1 nM
same,TGI,CAKI-1 renal,1140 nM
same,TGI,IGROV1 ovarian,128 nM
same,GI50,COLO 205 colon,24.7 nM
same,TGI,COLO 205 colon,57.8 nM
same,GI50,HOP-62 NSCLC,21.6 nM
same,TGI,HOP-62 NSCLC,49.4 nM
same,GI50,EKVX NSCLC,50.2 nM
same,TGI,EKVX NSCLC,192 nM
same,GI50,UACC-62 melanoma,18.6 nM
same,TGI,UACC-62 melanoma,45.4 nM
same,GI50,CCRF-CEM leukemia,18.7 nM
same,TGI,CCRF-CEM leukemia,35.5 nM
same,GI50,BT-549 breast,23.5 nM
same,TGI,BT-549 breast,50.2 nM
same,GI50,MALME-3M melanoma,33.5 nM
same,TGI,MALME-3M melanoma,88.3 nM
same,TGI,NCI-H23 lung,106 nM
same,TGI,OVCAR-4 ovarian,602 nM
same,GI50,NCI-H460 NSCLC,19.9 nM
same,TGI,NCI-H460 NSCLC,41.9 nM
same,GI50,RPMI-8226 leukemia,23.7 nM
same,TGI,RPMI-8226 leukemia,50.6 nM
same,GI50,A549 NSCLC,35.2 nM
same,TGI,A549 NSCLC,1090 nM
same,GI50,SK-MEL-28 melanoma,25.7 nM
same,TGI,SK-MEL-28 melanoma,86.5 nM
same,GI50,HT29 colon,36.5 nM
same,TGI,HT29 colon,203 nM
same,GI50,SK-MEL-5 melanoma,22 nM
same,TGI,SK-MEL-5 melanoma,53.6 nM
same,GI50,HS 578T breast,18.7 nM
same,TGI,HS 578T breast,43.3 nM
same,GI50,HL-60(TB) leukemia,16 nM
same,TGI,HL-60(TB) leukemia,29.8 nM
same,GI50,LOX IMVI melanoma,18.5 nM
same,TGI,LOX IMVI melanoma,35.7 nM
same,GI50,M14 melanoma,37.7 nM
same,TGI,M14 melanoma,118 nM
